This note sets out measurements from ChEMBL document CHEMBL5518228, “DNA Interaction and Cleavage Modes of Anthraquinone-Fused Enediynes: A Study on Tiancimycins, Yangpumicins, and Their Semisynthetic Analogues” (J Med Chem, 2024).

Active and inactive are the calls of the source. The calls are words filed in the database; no cut-off is given here.

The test system of series [1] is Jurkat. In words: Cytotoxicity against human Jurkat cells incubated for 72 hrs by CCK-8 assay. It counts as functional, cell-based.
The test system of series [2] is A549. In words: Cytotoxicity against human A549 cells incubated for 72 hrs by CCK-8 assay. The following applies: A549, 72 h. It counts as functional, cell-based. (Tetrazolium dyes change colour on reduction, which living cells bring about.)
For series [3], the system named is Caco-2. Briefly: Cytotoxicity against human Caco-2 cells incubated for 72 hrs by CCK-8 assay. The settings on record: Caco-2, 72 h. The class given is functional, cell-based.
Series [4] in a line: Cytotoxicity against human KPL-4 cells incubated for 72 hrs by CCK-8 assay. The following applies: KPL4, 72 h. The class given is functional, cell-based.
Series [5] is described as follows: Cytotoxicity against human NCM460 cells incubated for 72 hrs by CCK-8 assay. The class given is toxicity, cell-based.
Series [6] is described as follows: Cytotoxicity against human HUVEC cells incubated for 72 hrs by CCK-8 assay. It counts as toxicity, cell-based.
In series [7] the test system is Supercoiled DNA. In words: Induction of supercoiled pBR322 DNA (unknown origin) cleavage assessed as relaxation of supercoiled plasmid incubated for 1 hr in presence of DTT by SYBR I Green staining based agarose gel electrophoresis analysis. The class given is nucleic-acid assay.
In series [8] the test system is DNA. Briefly: Induction of duplex DNA (unknown origin) cleavage assessed as DNA cleaved fragments at AT-rich region at 100 uM incubated for 6 hr in presence of DTT by agarose gel electrophoresis analysis. It counts as nucleic-acid assay.
For series [9], the system named is Calf thymus DNA. In words: Binding affinity to calf thymus DNA assessed as change in gibbs free energy in presence of ethidium bromide by competitive binding based fluorescence spectroscopic analysis. The class given is nucleic-acid assay. The following applies: Bos taurus.
In series [10] the test system is DNA. In words: Induction of duplex DNA (unknown origin) cleavage assessed as DNA cleaved fragments at AT-rich region at 1 mM incubated for 6 hr in presence of DTT by agarose gel electrophoresis analysis. It counts as nucleic-acid assay.
Series [11] relates to DNA. Briefly: Induction of duplex DNA (unknown origin) cleavage assessed as DNA cleaved fragments at GC-rich region at 17.5 uM incubated for 1 hr in presence of FeSO4.7H2O by agarose gel electrophoresis analysis. The class given is nucleic-acid assay.
Series [12] has as its system Supercoiled DNA. Briefly: Induction of supercoiled pBR322 DNA (unknown origin) cleavage at 0.5 uM incubated for 1 hr under pH 7.5 condition by agarose gel electrophoresis analysis. The class given is nucleic-acid assay.
Series [13] deals with Supercoiled DNA. Briefly: Induction of supercoiled pBR322 DNA (unknown origin) cleavage at 0.5 uM incubated for 1 hr in presence of pyridine under pH 7.4 condition by agarose gel electrophoresis analysis. The class given is nucleic-acid assay.
For series [14], the system named is Supercoiled DNA. In words: Induction of supercoiled pBR322 DNA (unknown origin) cleavage at 0.5 uM incubated for 1 hr in presence of catalase under pH 7.4 condition by agarose gel electrophoresis analysis. It counts as nucleic-acid assay.
Series [15] relates to Supercoiled DNA. In words: Induction of supercoiled pBR322 DNA (unknown origin) cleavage at 0.5 uM incubated for 1 hr in presence of methanol under pH 7.4 condition by agarose gel electrophoresis analysis. The class given is nucleic-acid assay.
Series [16] concerns Supercoiled DNA. In words: Induction of supercoiled pBR322 DNA (unknown origin) cleavage at 0.5 uM incubated for 1 hr in presence of ethanol under pH 7.4 condition by agarose gel electrophoresis analysis. It counts as nucleic-acid assay.
Series [17] deals with Supercoiled DNA. In words: Induction of supercoiled pBR322 DNA (unknown origin) cleavage at 0.5 uM incubated for 1 hr in presence of mannitol under pH 7.4 condition by agarose gel electrophoresis analysis. It counts as nucleic-acid assay.
Series [18] deals with Supercoiled DNA. Briefly: Induction of supercoiled pBR322 DNA (unknown origin) cleavage at 100 nM incubated for 1 hr in presence of NADPH by agarose gel electrophoresis analysis. It counts as nucleic-acid assay.
In series [19] the test system is Supercoiled DNA. Briefly: Induction of supercoiled pBR322 DNA (unknown origin) cleavage at 100 nM incubated for 1 hr in presence of DTT by agarose gel electrophoresis analysis. The class given is nucleic-acid assay.
In series [20] the test system is Supercoiled DNA. In words: Induction of supercoiled pBR322 DNA (unknown origin) cleavage at 100 nM incubated for 1 hr in presence of GSH by agarose gel electrophoresis analysis. The class given is nucleic-acid assay.
For series [21], the system named is Calf thymus DNA. Briefly: Binding affinity to calf thymus DNA assessed as DNA insertion by measuring change in gibbs free energy by fluorescence spectroscopic analysis. The settings on record: Bos taurus. The class given is nucleic-acid assay.
In series [22] the test system is Calf thymus DNA. In words: Binding affinity to calf thymus DNA assessed as DNA insertion by measuring change in gibbs free energy in presence of triggered form of compound by fluorescence spectroscopic analysis. The settings on record: Bos taurus. It counts as nucleic-acid assay.
The test system of series [23] is Supercoiled DNA. Briefly: Induction of supercoiled pBR322 DNA (unknown origin) cleavage at 5 uM incubated for 1 hr under pH 5.5 to 9.5 condition by agarose gel electrophoresis analysis. The class given is nucleic-acid assay.
Series [24] deals with Supercoiled DNA. Briefly: Induction of supercoiled pBR322 DNA (unknown origin) cleavage at 5 uM incubated for 1 hr in presence of catalase under pH 7.4 condition by agarose gel electrophoresis analysis. The class given is nucleic-acid assay.
In series [25] the test system is Supercoiled DNA. Briefly: Induction of supercoiled pBR322 DNA (unknown origin) cleavage at 5 uM incubated for 1 hr in presence of pyridine under pH 7.4 condition by agarose gel electrophoresis analysis. The class given is nucleic-acid assay.
The subject of series [26] is Supercoiled DNA. In words: Induction of supercoiled pBR322 DNA (unknown origin) cleavage at 5 uM incubated for 1 hr in presence of methanol under pH 7.4 condition by agarose gel electrophoresis analysis. It counts as nucleic-acid assay.
Series [27] relates to Supercoiled DNA. In words: Induction of supercoiled pBR322 DNA (unknown origin) cleavage at 5 uM incubated for 1 hr in presence of ethanol under pH 7.4 condition by agarose gel electrophoresis analysis. The class given is nucleic-acid assay.
Series [28] deals with Supercoiled DNA. In words: Induction of supercoiled pBR322 DNA (unknown origin) cleavage at 5 uM incubated for 1 hr in presence of mannitol under pH 7.4 condition by agarose gel electrophoresis analysis. It counts as nucleic-acid assay.

For the molecule `COc1cc(Br)c2c(c1O)C(=O)c1c3c(cc(O)c1C2=O)[C@@]12O[C@@]1([C@@H](C)O)[C@H](C#C/C=C\C#C[C@H]2O)N3`, the IC50 (as a rule, the concentration that inhibits the measured activity by half) came out at 2.6 nM in [1], 11 nM in [2], 154 nM in [3] and 0.31 nM in series [4]. Moreover, the values for the IC50 at 72 h in [5] and in series [6] were 3.3 nM and 22.7 nM, respectively. The EC50 (commonly the concentration that produces a half-maximal response) in series [7] worked out at 79 nM. The outcome in series [8] was Active. In [9], the deltaG is -8.13 kcal/mol.

For the molecule `C[C@@H](O)C12O[C@]13c1cc(O)c4c(c1N[C@H]2C#C/C=C\C#C[C@H]3O)C(=O)c1c(O)cccc1C4=O` (stereo not given in full), the 50% inhibitory concentration (IC50) in [1] worked out at 0.009 nM; in [2], 0.06 nM; in series [3], 1.4 nM; in [4], 0.006 nM. Further, the IC50 at 72 h in series [5] was found to be 0.07 nM; in series [6], 0.2 nM. Moreover, the EC50 in [7] stood at 75.5 nM. In addition, the outcome in [8] was Active. Besides, in [9], the deltaG is -8.31 kcal/mol.

With `COc1ccc2c(c1OC)C(=O)c1c3c(cc(OC)c1C2=O)[C@@]12O[C@@]1([C@@H](C)O)[C@H](C#C/C=C\C#C[C@H]2O)N3`, the IC50 in series [1] was 117 nM; in series [2], 787 nM; in series [3] it was 635 nM; in series [4], 32.8 nM. In addition, the IC50 at 72 h in [5] came out at 382 nM; in [6] it was 525 nM. Moreover, the EC50 in series [7] is over 1000 nM. Moreover, the outcome in series [10] was inactive.

For BLEOMYCIN, in series [11], the outcome was Active.

As for `O=C1c2cccc(O)c2C(=O)c2c3c(cc(O)c21)[C@@]12O[C@@]1([C@H](O)CO)[C@H](C#C/C=C\C#C[C@H]2O)N3`, the IC50 in [1] is 0.02 nM; in series [2], 0.2 nM; in series [3], 13.5 nM; in series [4], 0.01 nM. Moreover, the IC50 at 72 h in series [5] was found to be 0.2 nM; in series [6], 0.8 nM. In series [7], the EC50 was determined as 261 nM. The result in series [8] was Active. Moreover, in [9], the deltaG was -8.41 kcal/mol.

Consider `COC(=O)[C@@H](O)[C@@](C)(O)[C@@]12O[C@]13c1cc(O)c4c(c1N[C@H]2C#C/C=C\C#C[C@H]3O)C(=O)c1c(ccc(OC)c1O)C4=O`, for which the IC50 in series [1] stood at 0.4 nM; in series [2], 0.1 nM; in [3], 0.4 nM; in series [4], 0.04 nM. Further, the IC50 at 72 h in series [5] and in [6] was 0.4 nM in each case. Moreover, the EC50 in series [7] was 248 nM. Also, the outcome in series [12], in series [13], in series [14], in [15], in series [16] and in series [17] was Active. Also, the outcome in [8] was Active. Besides, the deltaG in series [9] is -8.56 kcal/mol.

For `O=C1c2ccccc2C(=O)c2c3c(cc(O)c21)[C@@]12O[C@@]1([C@H](O)CO)[C@H](C#C/C=C\C#C[C@H]2O)N3`, the IC50 in series [1] worked out at 0.01 nM; in [2], 0.2 nM; in series [3] it was 5.4 nM; in series [4], 0.004 nM. The IC50 at 72 h in [5] was determined as 0.1 nM; in series [6], 0.3 nM. Also, the EC50 in series [7] amounted to 83.3 nM. The result in series [18] was inactive. Also, the outcome in series [19], in series [20] and in [8] was Active. Also, the deltaG in series [9] is -8.31 kcal/mol.

For `COC(=O)[C@@H](O)[C@@](C)(O)[C@@]12O[C@]13c1cc(O)c4c(c1N[C@H]2C#C/C=C\C#C[C@H]3O)C(=O)c1c(O)c(OC)cc(-n2[nH]c(=O)n(-c3ccccc3)c2=O)c1C4=O`, the IC50 in series [1] was 44.7 nM; in series [2], 499 nM; in series [3] it was 613 nM; in [4] it was 23.7 nM. Further, the IC50 at 72 h in [5] is 227 nM; in [6], 946 nM. Besides, the EC50 in series [7] was 33.2 nM. The outcome in series [8] was inactive.

With `COC1=C(C(=O)O)[C@H](C)[C@@]23O[C@]24c2cc(O)c5c(c2N[C@H]3C#C/C=C\C#CC14)C(=O)c1ccccc1C5=O`, the deltaG in [9] is -3.79 kcal/mol.

In the case of `COC1=C(C(=O)O)[C@H](C)[C@@]23O[C@]24c2cc(O)c5c(c2N[C@H]3C#C/C=C\C#CC14)C(=O)c1c(O)ccc(O)c1C5=O`, the deltaG was 2.62 kcal/mol in series [9], -18.1 kcal/mol in series [21] and -13.6 kcal/mol in [22].

For `COC(=O)[C@@H](O)[C@@](C)(O)[C@@]12O[C@]13c1cc(O)c4c(c1N[C@H]2C#C/C=C\C#C[C@H]3O)C(=O)c1cc(OC)ccc1C4=O`, the IC50 amounted to 0.1 nM in series [1], 2.8 nM in series [2], 6.8 nM in [3] and 0.5 nM in series [4]. The IC50 at 72 h in series [5] was 2.8 nM; in series [6], 15.5 nM. The EC50 in [7] was 583 nM. Moreover, the result in [8] was Active. The deltaG in series [9] is -7.99 kcal/mol.

With `COc1ccc2c(c1O)C(=O)c1c3c(cc(O)c1C2=O)[C@@]12O[C@@]1([C@](C)(O)[C@H](O)C(=O)O)[C@H](C#C/C=C\C#C[C@H]2O)N3`, the IC50 in series [1] amounted to 1 nM; in [2], 10.1 nM; in series [3] it was 158 nM; in series [4] it was 0.24 nM. Further, the IC50 at 72 h in series [5] was determined as 0.6 nM; in series [6], 6.8 nM. In series [7], the EC50 is 760 nM. For the same molecule, the outcome in series [23], in [24], in series [25], in series [26], in [27] and in [28] was Active. Moreover, the result in [10] was inactive. For the same molecule, in series [9], the deltaG was -8.48 kcal/mol.

Regarding `COc1cccc2c1C(=O)c1c(O)c3c(c(O)c1C2=O)C[C@@](O)(C(=O)CO)C[C@@H]3O[C@H]1C[C@H](N)[C@H](O)[C@H](C)O1`, the deltaG in series [9] is -9.68 kcal/mol.
